Target: T1, slc26a1 (Mus musculus, UniProt P58735)
T1 construct: expressed in transfected cells; host or cells: 293 T/17 cells, transient transfection with pIRES-HIF vector (IRES-YFP, not fused)
T1 sequence (P58735 1-704): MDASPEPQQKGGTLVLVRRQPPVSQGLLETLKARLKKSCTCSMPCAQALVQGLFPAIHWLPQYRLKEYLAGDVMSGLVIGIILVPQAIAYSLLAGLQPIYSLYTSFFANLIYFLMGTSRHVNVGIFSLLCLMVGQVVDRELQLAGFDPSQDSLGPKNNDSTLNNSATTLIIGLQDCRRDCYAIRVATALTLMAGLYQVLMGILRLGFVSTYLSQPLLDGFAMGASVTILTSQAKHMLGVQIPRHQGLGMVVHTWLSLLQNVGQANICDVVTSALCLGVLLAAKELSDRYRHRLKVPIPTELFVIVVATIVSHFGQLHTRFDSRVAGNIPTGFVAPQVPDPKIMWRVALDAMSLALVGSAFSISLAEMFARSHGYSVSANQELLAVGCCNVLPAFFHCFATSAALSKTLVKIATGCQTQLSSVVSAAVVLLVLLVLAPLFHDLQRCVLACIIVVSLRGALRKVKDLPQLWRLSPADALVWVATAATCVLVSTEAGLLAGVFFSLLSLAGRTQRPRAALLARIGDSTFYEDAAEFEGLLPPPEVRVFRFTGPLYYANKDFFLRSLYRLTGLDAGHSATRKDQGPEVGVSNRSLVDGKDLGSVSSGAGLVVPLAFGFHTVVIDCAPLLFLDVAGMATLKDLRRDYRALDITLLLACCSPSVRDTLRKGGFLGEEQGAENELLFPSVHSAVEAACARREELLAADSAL
Assay: Selectivity: Cl-/I- exchange in 293T/17 cells transfected with slc26a1 and YFP
Format: cell-based
Settings: 25 μM, 10 min preincubation
Procedure: YFP-based cellular assays of slc26a3, slc26a4, SLC26A9, and TMEM16A function were performed as described previously ([7]). Slc26a1 and slc26a2 assays were done in transfected HEK 293 cells (see Supplemental Methods for details). Niflumic acid was used as a positive control for SLC26A isoforms ([7]). For TMEM16A, the selective small-molecule inhibitor TMinh-23 was used as a positive control ([28]). The activities of ENaC, CFTR, and CaCC were determined using well-differentiated HBE cells as described previously ([13]). Cl^–/HCO3^– exchange was measured as described previously ([7], [10], [11]). Briefly, cell cytoplasm was labeled with the pH-sensitive fluorescent dye BCECF-AM (Invitrogen), and Cl^–/HCO3^– exchange was measured in response to addition of a gluconate-containing solution to drive exchange of cytoplasmic Cl^– for extracellular HCO3^–, producing cytoplasmic alkalinization.
Slc26a1 and slc26a2 cDNA constructs
The complementar y DNA sequences of slc26a1 and slc26a2 were generated using gB LOCK gene fragments (Int egrat ed DNA technology, Coralville, IA) in the plasmid vector pIRESpuro3 (Takara, San J ose, CA). […]
PBS. […] Background-corrected, area-integrat ed single cell fluorescence was calcul ated for determination of slc26a1 / slc26a2 activit y from the rate of fluorescence quenching. […]

Cc1c(Br)c(C(F)(F)F)nn1CC(=O)N1CCc2nc3cc(-c4ccccc4)[nH]n3c(=O)c2C1 [PAT1inh-B01]
effect on slc26a1 activity: did not affect

Reference: paper PMC8262356, “SLC26A6-selective inhibitor identified in a small-molecule screen blocks fluid absorption in small intestine” (JCI Insight, 2021)
